How the values were obtained:
[1] = Drug level in brain of sub-chronic rat joint pain efficacy model satellite animal group at 20 mg/kg bid measured on day 5 after 1 hr post dose; format: ADME, organism-based; parameters: dose 20 mg/kg; details: read-out: Drug uptake
[2] = Ratio of drug level in brain to blood of sub-chronic rat joint pain efficacy model satellite animal group at 5 mg/kg bid measured on day 5; format: ADME, organism-based; parameters: dose 5 mg/kg
[3] = Solubility in simulated gastric fluid after 2 hrs; format: physicochemical
[4] = Ratio of drug level in brain to blood of sub-chronic rat joint pain efficacy model treatment group at 5 mg/kg bid measured on day 5 after 1 hr post dose; format: ADME, organism-based; parameters: dose 5 mg/kg
[5] = Ratio of drug level in brain to blood in complete Freund's adjuvant-induced rat inflammatory pain model at 10 mg/kg, po after 1 hr; format: ADME, organism-based; parameters: dose 10 mg/kg, route oral
[6] = target: T1, Peroxisome proliferator-activated receptor alpha (Homo sapiens, UniProt Q07869); test: Activity at PPARalpha
T1 sequence (Q07869 whole entry): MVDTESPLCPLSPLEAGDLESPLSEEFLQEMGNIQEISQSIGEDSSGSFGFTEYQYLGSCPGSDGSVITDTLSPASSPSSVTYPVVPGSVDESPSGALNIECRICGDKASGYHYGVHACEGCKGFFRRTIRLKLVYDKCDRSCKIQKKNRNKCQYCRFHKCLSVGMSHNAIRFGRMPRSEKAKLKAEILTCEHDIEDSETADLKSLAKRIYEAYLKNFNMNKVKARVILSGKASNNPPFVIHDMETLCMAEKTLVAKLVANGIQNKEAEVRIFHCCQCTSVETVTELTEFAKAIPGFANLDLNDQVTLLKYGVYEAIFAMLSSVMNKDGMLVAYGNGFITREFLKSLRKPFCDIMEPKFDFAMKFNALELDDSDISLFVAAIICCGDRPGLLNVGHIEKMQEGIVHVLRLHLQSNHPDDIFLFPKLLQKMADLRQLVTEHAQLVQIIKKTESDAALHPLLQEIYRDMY

[7] = Half life in rat at 1 mg/kg, iv; format: ADME, organism-based; parameters: dose 1 mg/kg, route intravenous; details: in vivo
[8] = Ratio of drug level in brain to blood of sub-chronic rat joint pain efficacy model satellite animal group at 20 mg/kg bid measured on day 5; format: ADME, organism-based; parameters: dose 20 mg/kg
[9] = Blood clearance in cynomolgus monkey at 1 mg/kg, iv; format: ADME, organism-based, Macaca fascicularis; parameters: dose 1 mg/kg, route intravenous
[10] = Drug level in blood of sub-chronic rat joint pain efficacy model satellite animal group at 20 mg/kg bid measured on day 1 after 1 hr post dose; format: ADME, organism-based; parameters: dose 20 mg/kg; details: read-out: Drug uptake
[11] = Drug level in brain of complete Freund's adjuvant-induced rat inflammatory pain model at 2 mg/kg, po after 1 hr; format: ADME, organism-based; parameters: dose 2 mg/kg, route oral; details: read-out: Drug uptake
[12] = target: T2, Prostaglandin E2 receptor EP1 subtype (Homo sapiens, UniProt P34995); test: Antagonist activity at EP1 receptor by FLIPR calcium mobilization assay
T2 sequence (P34995 whole entry): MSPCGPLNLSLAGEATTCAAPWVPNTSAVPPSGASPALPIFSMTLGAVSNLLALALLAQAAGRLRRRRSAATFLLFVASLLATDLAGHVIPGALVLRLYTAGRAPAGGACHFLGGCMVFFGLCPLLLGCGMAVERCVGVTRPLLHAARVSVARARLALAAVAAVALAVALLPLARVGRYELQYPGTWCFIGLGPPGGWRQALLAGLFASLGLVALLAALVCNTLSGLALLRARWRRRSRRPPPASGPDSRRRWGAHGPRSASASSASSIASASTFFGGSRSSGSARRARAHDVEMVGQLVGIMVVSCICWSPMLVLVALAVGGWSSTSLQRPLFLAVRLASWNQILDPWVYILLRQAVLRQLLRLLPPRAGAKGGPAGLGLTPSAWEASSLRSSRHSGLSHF

[13] = Aqueous solubility in water after 2 hrs; format: physicochemical
[14] = target: T3, Peroxisome proliferator-activated receptor gamma (Homo sapiens, UniProt P37231); test: Activity at PPARgamma
T3 sequence (P37231 whole entry): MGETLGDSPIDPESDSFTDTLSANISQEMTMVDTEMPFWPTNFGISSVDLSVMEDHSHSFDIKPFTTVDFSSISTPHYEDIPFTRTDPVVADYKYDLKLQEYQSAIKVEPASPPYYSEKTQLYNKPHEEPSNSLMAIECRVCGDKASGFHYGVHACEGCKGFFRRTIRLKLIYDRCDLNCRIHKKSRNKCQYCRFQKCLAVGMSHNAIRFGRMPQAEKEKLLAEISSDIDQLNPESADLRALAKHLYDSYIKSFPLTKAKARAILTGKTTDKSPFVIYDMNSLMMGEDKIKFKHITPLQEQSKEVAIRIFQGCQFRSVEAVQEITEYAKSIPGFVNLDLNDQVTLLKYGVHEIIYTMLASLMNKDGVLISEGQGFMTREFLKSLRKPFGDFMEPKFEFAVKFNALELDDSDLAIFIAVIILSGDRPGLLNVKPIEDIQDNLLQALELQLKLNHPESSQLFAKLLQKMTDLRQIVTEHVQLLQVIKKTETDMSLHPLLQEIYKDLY

[15] = Ratio of drug level in brain to blood in rat at 0.28 mg/kg/hr, iv for 18 hrs; format: ADME, organism-based; parameters: route intravenous
[16] = Oral bioavailability in rat at 3 mg/kg; format: ADME, organism-based; details: in vivo
[17] = Drug level in blood of sub-chronic rat joint pain efficacy model treatment group at 5 mg/kg bid measured on day 5 after 1 hr post dose; format: ADME, organism-based; parameters: dose 5 mg/kg; details: read-out: Drug uptake
Liver microsomes = test: Metabolic stability assessed as intrinsic clearance per gram of rat liver microsomes; format: ADME, Microsome

Structure (SMILES): CC(C)COc1ccc(Cl)cc1-c1ccccc1-c1cccc(C(=O)[O-])n1.[Na+]
- concentration at 1 h [1]: 3630 nM
- Kp at 5 day [2]: 0.54
- solubility at 2 h [3]: 33 µg/mL
- Kp at 1 h [4]: 0.57
- Kp at 1 h [5]: 0.48
- EC50 [6]: > 10 µM
- half-life [7]: 3.5 h
- Kp at 5 day [8]: 0.5
- clearance [9]: 26 mL/min/kg
- concentration at 1 h [10]: 25900 nM
- concentration at 1 h [11]: 645 nM
- Ki [12]: 0.00251 µM
- solubility at 2 h [13]: 499 µg/mL
- EC50 [14]: 3.98 µM
- Kp at 18 h [15]: 0.33
- bioavailability [16]: 95%
- concentration at 1 h [17]: 1630 nM
- CL (Liver microsomes): 0.7 mL/min/g

Reference: ChEMBL document CHEMBL1154508, “Discovery of GSK345931A: An EP(1) receptor antagonist with efficacy in preclinical models of inflammatory pain” (Bioorg Med Chem Lett, 2009)
